# Target: T1, AMPK beta 1 (Homo sapiens, UniProt Q13131+Q9Y478)
# T1 construct: in-cell-ELISA for phospho-ACC (Acetyl-CoA carboxylase 1) in HepG2 cells (liver); endogenous in cells; host or cells: HepG2 (assignment to the beta 1 column inferred)
# Assay: in-cell-ELISA for phospho-ACC: activation of AMPK, beta 1 (HepG2 cells / C2C12 myotubes)
# Type: cell-based
# Conditions: 3 μM, 2 h, percentage activation over vehicle control
# Protocol: Activation of AMPK by various compounds were measured using in-cell-ELISA for phospho-ACC (Acetyl-CoA carboxylase 1) in HepG2 cells (liver) and fully differentiated myotubes (C2C12 cells) grown in 96 well plate. Cells were treated with 1 μM, 3 μM or 10 μM of the molecule (Example) for 2 h in serum free DMEM media. After methanol fixation, cells were blocked with BSA followed by addition of anti-phospho ACC antibody (Cell Signaling) and HRP conjugated secondary antibody. Absorbance values taken at 450 nm were normalized with total DNA (Hoechest stain). Results were expressed as percentage activation over vehicle control.
# Percentage activation at compound (Example) concentration of 1, 3 or 10 μM for compounds according to the invention are shown in the following table. The number of the compound corresponds to the number of the Example (Ex) in the experimental section.
# T1 sequence (Q9Y478 2-270 limits assumed): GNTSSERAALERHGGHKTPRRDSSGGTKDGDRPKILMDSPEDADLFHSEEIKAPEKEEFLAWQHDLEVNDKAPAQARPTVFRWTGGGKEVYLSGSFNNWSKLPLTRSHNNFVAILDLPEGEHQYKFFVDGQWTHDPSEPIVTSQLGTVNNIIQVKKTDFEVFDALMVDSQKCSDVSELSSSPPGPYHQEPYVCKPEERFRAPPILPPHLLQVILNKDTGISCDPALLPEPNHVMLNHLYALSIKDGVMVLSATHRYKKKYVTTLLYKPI
# T1 sequence (Q13131 whole entry): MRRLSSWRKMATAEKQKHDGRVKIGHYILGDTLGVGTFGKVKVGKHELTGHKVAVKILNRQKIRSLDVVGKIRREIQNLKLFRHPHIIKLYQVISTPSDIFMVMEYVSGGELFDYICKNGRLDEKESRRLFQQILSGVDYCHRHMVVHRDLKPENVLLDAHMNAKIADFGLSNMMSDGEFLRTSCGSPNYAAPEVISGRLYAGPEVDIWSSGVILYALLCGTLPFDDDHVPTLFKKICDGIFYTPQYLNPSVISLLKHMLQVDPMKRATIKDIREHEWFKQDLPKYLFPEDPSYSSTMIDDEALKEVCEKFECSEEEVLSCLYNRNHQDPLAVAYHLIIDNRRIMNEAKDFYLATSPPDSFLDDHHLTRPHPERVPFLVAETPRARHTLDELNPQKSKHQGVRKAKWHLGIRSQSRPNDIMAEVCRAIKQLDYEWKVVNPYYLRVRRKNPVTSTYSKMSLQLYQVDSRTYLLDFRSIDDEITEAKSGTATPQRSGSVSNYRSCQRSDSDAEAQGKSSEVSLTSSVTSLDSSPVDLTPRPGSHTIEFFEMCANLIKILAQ
# T1 sequence (P54619 whole entry partner): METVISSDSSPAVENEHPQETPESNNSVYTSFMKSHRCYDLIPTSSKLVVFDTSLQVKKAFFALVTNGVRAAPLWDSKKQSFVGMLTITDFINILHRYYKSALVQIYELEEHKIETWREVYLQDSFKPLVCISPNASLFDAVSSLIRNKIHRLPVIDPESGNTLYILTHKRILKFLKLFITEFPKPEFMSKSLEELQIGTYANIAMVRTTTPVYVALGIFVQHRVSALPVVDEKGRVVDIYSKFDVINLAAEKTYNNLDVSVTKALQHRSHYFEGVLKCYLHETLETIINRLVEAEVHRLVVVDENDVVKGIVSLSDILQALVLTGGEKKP
row,Percentage activation of beta 1 at given concentration [% at 3 μM],Structure (SMILES)
1,47,O=C(O)Cc1cccc(C2CC23C(=O)Nc2cc(Cl)c(-c4ccc(-c5ccncc5)cc4)cc23)c1 (stereo not shown) [Example 58]
2,118,O=C(O)Cc1cccc(C2CC23C(=O)Nc2cc(Cl)c(-c4ccc(-c5ccncc5)cc4)cc23)c1 (stereo not shown) [Example 61]

# Same assay, conditions: 10 μM, 2 h, percentage activation over vehicle control
row,Percentage activation of beta 1 at given concentration [% at 10 μM],Structure (SMILES)
1,23,O=C(O)Cc1cccc(C2CC23C(=O)Nc2cc(Cl)c(-c4ccc(-c5ccccc5O)cn4)cc23)c1 (stereo not shown) [Example 16]
2,88,O=C(O)Cc1cccc(C2CC23C(=O)Nc2cc(Cl)c(-c4ccc(-c5ccccc5O)cn4)cc23)c1 (stereo not shown) [Example 17]
3,168,O=C(O)Cc1cccc(C2CC23C(=O)Nc2cc(Cl)c(-c4ccc(-c5ccccc5O)cn4)cc23)c1 (stereo not shown) [Example 18]
4,11,Cc1ccc(C2CC23C(=O)Nc2cc(Cl)c(-c4ccc(C5(CO)CC5)cc4)cc23)cc1C(=O)O (stereo not shown) [Example 44]
5,80,Cc1ccc(C2CC23C(=O)Nc2cc(Cl)c(-c4ccc(C5(CO)CC5)cc4)cc23)cc1C(=O)O (stereo not shown) [Example 45]

# Same assay, conditions: 2 h, 1 μM, percentage activation over vehicle control, read-out: Percentage activation of beta 1 at given concentration
row,activation at 1 µM [%],Structure (SMILES)
1,42,Cc1ccc(C2CC23C(=O)Nc2cc(Cl)c(-c4ccc(-c5ccncc5)cc4)cc23)cc1CC(=O)O (stereo not shown) [Example 63]

# Same assay, conditions: 2 h, 3 μM, percentage activation over vehicle control, read-out: Percentage activation of beta 1 at given concentration
row,activation at 3 µM [%],Structure (SMILES)
1,60,O=C(O)c1cccc(C2CC23C(=O)Nc2cc(F)c(-c4ccc(-c5ccccc5O)cc4)cc23)c1 (stereo not shown) [Example 2]
2,66,Cc1ccc(C2CC23C(=O)Nc2cc(F)c(-c4ccc(-c5ccccc5O)cc4)cc23)cc1CC(=O)O (stereo not shown) [Example 6]
3,64,COc1ccc(C2CC23C(=O)Nc2cc(F)c(-c4ccc(-c5ccccc5O)cc4)cc23)cc1C(=O)O (stereo not shown) [Example 11]
4,48,Cn1cc(C2CC23C(=O)Nc2cc(F)c(-c4ccc(-c5ccccc5O)cc4)cc23)cc1C(=O)O (stereo not shown) [Example 14]
5,43,Cc1ccc(C2CC23C(=O)Nc2cc(Cl)c(-c4ccc(-c5ccccc5O)cn4)cc23)cc1CC(=O)O (stereo not shown) [Example 19]
6,99,Cc1ccc(C2CC23C(=O)Nc2cc(Cl)c(-c4ccc(-c5ncccc5O)cc4)cc23)cc1C(=O)O (stereo not shown) [Example 20]
7,93,Cc1ccc(C2CC23C(=O)Nc2cc(Cl)c(-c4ccc(-c5ccncc5O)cc4)cc23)cc1C(=O)O (stereo not shown) [Example 21]
8,63,CC(C)c1ccc(C2CC23C(=O)Nc2cc(Cl)c(-c4ccc(-c5ncccc5O)cc4)cc23)cc1C(=O)O (stereo not shown) [Example 23]
9,73,O=C(O)Cc1cccc(C2CC23C(=O)Nc2cc(Cl)c(-c4ccc(-c5ccccc5O)cc4)cc23)c1 (stereo not shown) [Example 26]
10,104,Cc1ccc(C2CC23C(=O)Nc2cc(Cl)c(-c4ccc(-c5ccccc5O)cc4)cc23)cc1C(=O)O (stereo not shown) [Example 28]
11,68,O=C(O)Cc1cccc(C2CC23C(=O)Nc2cc(F)c(-c4ccc(-c5ccccc5O)cc4)cc23)c1 (stereo not shown) [Example 31]
12,39,O=C(O)c1ccc(C2CC23C(=O)Nc2cc(Cl)c(-c4ccc(-c5ccccc5O)cc4)cc23)cc1 (stereo not shown) [Example 32]
13,47,Cc1ccc(C2CC23C(=O)Nc2cc(Cl)c(-c4ccc(Cc5ccccc5O)cc4)cc23)cc1C(=O)O (stereo not shown) [Example 34]
14,43,Cn1cc(C2CC23C(=O)Nc2cc(Cl)c(-c4ccc(-c5ccccc5O)cc4)cc23)cc1C(=O)O (stereo not shown) [Example 43]
15,53,Cc1ccc(C2CC23C(=O)Nc2cc(Cl)c(-c4ccc(N5CCC[C@H]5CO)cc4)cc23)cc1C(=O)O (stereo partly shown) [Example 49]
16,68,CC(C)c1ccc(C2CC23C(=O)Nc2cc(Cl)c(-c4ccc(N5CCC[C@@H]5CO)cc4)cc23)cc1C(=O)O (stereo partly shown) [Example 50]
17,34,CC(C)c1ccc(C2CC23C(=O)Nc2cc(Cl)c(-c4ccc(N5CCC[C@H]5CO)cc4)cc23)cc1C(=O)O (stereo partly shown) [Example 51]
18,47,Cc1ccc(C2CC23C(=O)Nc2cc(Cl)c(-c4ccc(-c5ccccc5C(C)(C)O)cc4)cc23)cc1C(=O)O (stereo not shown) [Example 53]
19,42,Cc1ccc(C2CC23C(=O)Nc2cc(Cl)c(-c4ccc(-c5ccncc5)cc4)cc23)cc1C(=O)O (stereo not shown) [Example 59]
20,81,Cc1ccc(C2CC23C(=O)Nc2cc(Cl)c(-c4ccc(-c5ccncc5)cc4)cc23)cc1CC(=O)O (stereo not shown) [Example 64]
21,80,Cc1ccc(C2CC23C(=O)Nc2cc(Cl)c(-c4ccc(-c5ccncc5)c(F)c4)cc23)cc1C(=O)O (stereo not shown) [Example 67]
22,59,COc1ccc(C2CC23C(=O)Nc2cc(Cl)c(-c4ccc(-c5ccncc5)cc4)cc23)cc1CC(=O)O (stereo not shown) [Example 70]

# Same assay, conditions: 2 h, 10 μM, percentage activation over vehicle control, read-out: Percentage activation of beta 1 at given concentration
row,activation at 10 µM [%],Structure (SMILES)
1,102,O=C(O)c1cccc(C2CC23C(=O)Nc2cc(F)c(-c4ccc(-c5ccccc5O)cc4)cc23)c1 (stereo not shown) [Example 1]
2,166,Cc1ccc(C2CC23C(=O)Nc2cc(F)c(-c4ccc(-c5ccccc5O)cc4)cc23)cc1CC(=O)O (stereo not shown) [Example 3]
3,83,Cc1ccc(C2CC23C(=O)Nc2cc(F)c(-c4ccc(-c5ccccc5O)cc4)cc23)cc1C(=O)O (stereo not shown) [Example 4]
4,25,Cc1ccc(C2CC23C(=O)Nc2cc(Cl)c(-c4ccc(-c5ccccc5O)cn4)cc23)cc1C(=O)O (stereo not shown) [Example 8]
5,23,Cc1ccc(C2CC23C(=O)Nc2cc(F)c(-c4ccc(-c5ccccc5O)cn4)cc23)cc1C(=O)O (stereo not shown) [Example 9]
6,40,COc1ccc(C2CC23C(=O)Nc2cc(F)c(-c4ccc(-c5ccccc5O)cc4)cc23)cc1C(=O)O (stereo not shown) [Example 10]
7,12,COc1ccc(C2CC23C(=O)Nc2cc(F)c(-c4ccc(-c5ccccc5O)cc4)cc23)cc1CC(=O)O (stereo not shown) [Example 12]
8,11,Cn1cc(C2CC23C(=O)Nc2cc(F)c(-c4ccc(-c5ccccc5O)cc4)cc23)cc1C(=O)O (stereo not shown) [Example 13]
9,176,Cc1ccc(C2CC23C(=O)N(C)c2cc(F)c(-c4ccc(-c5ccccc5O)cc4)cc23)cc1C(=O)O (stereo not shown) [Example 15]
10,271,CC(C)c1ccc(C2CC23C(=O)Nc2cc(Cl)c(-c4ccc(-c5ccncc5O)cc4)cc23)cc1C(=O)O (stereo not shown) [Example 22]
11,85,CC(C)c1ccc(C2CC23C(=O)Nc2cc(Cl)c(-c4ccc(-c5ccccc5O)cn4)cc23)cc1C(=O)O (stereo not shown) [Example 24]
12,40,Cc1ccc(C2CC23C(=O)Nc2cc(Cl)c(-c4ccc(O)cc4)cc23)cc1C(=O)O (stereo not shown) [Example 29]
13,39,Cc1ccc(C2CC23C(=O)N(C)c2cc(Cl)c(-c4ccc(-c5ncccc5O)cc4)cc23)cc1C(=O)O (stereo not shown) [Example 36]
14,112,CC(C)c1ccc(C2CC23C(=O)N(C)c2cc(Cl)c(-c4ccc(-c5ncccc5O)cc4)cc23)cc1C(=O)O (stereo not shown) [Example 37]
15,28,CCn1cc(C2CC23C(=O)Nc2cc(Cl)c(-c4ccc(-c5ccccc5O)cc4)cc23)cc1C(=O)O (stereo not shown) [Example 39]
16,29,Cc1ccc(C2CC23C(=O)N(C)c2cc(Cl)c(-c4ccc(-c5ccncc5O)cc4)cc23)cc1C(=O)O (stereo not shown) [Example 41]

row,activation at 10 µM [%],Structure (SMILES)
1,42,Cn1c(C(=O)O)ccc1C1CC12C(=O)Nc1cc(Cl)c(-c3ccc(-c4ccccc4O)cc3)cc12 (stereo not shown) [Example 42]
2,72,Cc1ccc(C2CC23C(=O)Nc2cc(Cl)c(-c4ccc5c(ccn5CCO)c4)cc23)cc1C(=O)O (stereo not shown) [Example 47]
3,74,O=C(O)Cc1cccc(C2CC23C(=O)Nc2cc(Cl)c(-c4ccc(C5(CO)CC5)cc4)cc23)c1 (stereo not shown) [Example 48]
4,51,CC(C)c1ccc(C2CC23C(=O)Nc2cc(Cl)c(-c4ccc(OCCO)cc4)cc23)cc1C(=O)O (stereo not shown) [Example 52]
5,79,Cn1ccc2cc(-c3cc4c(cc3F)NC(=O)C43CC3c3cccc(CC(=O)O)c3)ccc21 (stereo not shown) [Example 56]
6,89,Cc1ccc(C2CC23C(=O)Nc2cc(F)c(-c4ccc(N5CCOCC5)cc4)cc23)cc1C(=O)O (stereo not shown) [Example 57]
7,86,Cc1ccc(C2CC23C(=O)Nc2cc(Cl)c(-c4ccc(-c5cccnc5)cc4)cc23)cc1C(=O)O (stereo not shown) [Example 62]
8,89,O=C(O)Cc1cccc(C2CC23C(=O)Nc2cc(Cl)c(-c4ccc(-c5cccnc5)cc4)cc23)c1 (stereo not shown) [Example 65]
9,36,Cc1ccc(C2CC23C(=O)Nc2cc(Cl)c(-c4ccc(N5CCOCC5)cc4)cc23)cc1C(=O)O (stereo not shown) [Example 66]
10,40,Cc1ccc(C2CC23C(=O)Nc2cc(Cl)c(-c4ccc(N5CCOCC5)c(F)c4)cc23)cc1C(=O)O (stereo not shown) [Example 71]
11,23,COc1ccc(C2CC23C(=O)Nc2cc(Cl)c(-c4ccc(-c5ccncc5)cc4)cc23)cc1C(=O)O (stereo not shown) [Example 73]
12,54,Cc1ccc(C2CC23C(=O)Nc2cc(Cl)c(-c4ccc(-c5ccccc5)cn4)cc23)cc1C(=O)O (stereo not shown) [Example 75]
13,17,COc1ccc(C2CC23C(=O)Nc2cc(Cl)c(-c4ccc(-c5ccccc5)cn4)cc23)cc1C(=O)O (stereo not shown) [Example 77]
14,66,Cc1ccc(C2CC23C(=O)Nc2cc(Cl)c(-c4ccc(-c5ccccn5)cc4)cc23)cc1C(=O)O (stereo not shown) [Example 78]
15,112,Cc1ccc(C2CC23C(=O)Nc2cc(Cl)c(C#Cc4ccncc4)cc23)cc1C(=O)O (stereo not shown) [Example 79]
